Tested on: not listed separately
Assay: Hepatocyte stability assay, mouse hepatocytes
Format: in vitro ADME
Details: mouse, cryopreserved hepatocytes, 1 μM compound, 0.5 million cells/mL, 37° C., read-out: MH +/− NADPH: Clint (μL/min/million cells)
Description: The […] of in vitro intrinsic clearance (Clint) for drug candidates in the early discovery stage is common practice in the pharmaceutical industry. The Clint values of drug candidates can help to confirm whether metabolism is the main clearance pathway when it is compared with the total body clearance in vivo. Hepatocytes are among the routinely used in vitro systems for measuring clearance. Hepatocytes have been reported to retain most of the phase I and phase II metabolic activities, and therefore, it is a useful tool to estimate the intrinsic clearance for potential drug candidates.
Metabolic stability of testing compound were be evaluated using human and mouse hepatocytes and can also be use rat, mouse, or other animal hepatocytes to predict intrinsic clearance. Cryopreserved hepatocytes were removed from the liquid nitrogen tank and thawed in a 37° C. water bath. As soon as the cells pulled away from the vial wall, they were decanted into 48 ml of warm HT medium. Cells were centrifuged for four minutes at 420 rpm (50 g). After removing the supernatant, pellet was re-suspended in warm DMEM medium. Cell density was counted by a hemacytometer.
The assay was carried out in 96-well microtiter plates. Compounds were incubated for 0, 60, 120, and 180 minutes at 37° C. with hepatocytes. Reaction mixtures (50 μL) contained a final concentration of 1 μM test compound, 0.5 million cells/mL hepatocytes in the DMEM medium. At each of the time points (for example, 0, 1, 2, and 3 hours), 200 μL of quench solution (100% acetonitrile with 0.1% formic acid) with internal standard was transferred to each well. Midazolam was included as a positive control to verify assay performance. Plates were sealed and centrifuged at 4° C. for 15 minutes at 4000 rpm. The supernatant is transferred to fresh plates for LC/MS/MS analysis.
Summarized conditions (customizable): [Compound]=[…], Positive control: midazolam and/or naloxone, [Hepatocyte]=0.5 million cells/Ml, time=0, 60, 120, and 180 min, t=37° C.
(§1) All samples were analyzed on LC/MS/MS using an AB Sciex API 4000 instrument, coupled to a Shimadzu LC-20AD LC Pump system. Analytical samples were separated using a Waters Atlantis T3 dC18 reverse phase HPLC column (20 mm×2.1 mm) at a flow rate of 0.5 mL/min. The mobile phase consisted of 0.1% formic acid in water (solvent A) and 0.1% formic acid in 100% acetonitrile (solvent B).
The extent of metabolism was calculated as the disappearance of the test compound, compared to the 0-min control reaction incubations. Initial rates were calculated for the compound concentration and used to determine t½ values and subsequently, the intrinsic clearance, Clint. Clint=(0.693)(1/t½(min))(mL incubation/million cells)

hepatocyte CLint at 1 μM | Compound
≥ 18 µL/min/1e6 cells | Cc1cc(C(C)(C)c2ccc(OC(C)c3ocnc3S(C)(=O)=O)cc2)cc(C#N)c1OCCCl (centres unmarked) [Compound A88]
≥ 18 µL/min/1e6 cells | Cc1cc(C(C)(C)c2ccc(OC(C)c3ncc(S(C)(=O)=O)o3)cc2)cc(C#N)c1OCCCl (centres unmarked) [Compound A89]
≥ 18 µL/min/1e6 cells | CC(Oc1ccc(C(C)(C)c2cc(Cl)c(OCCCl)c(C#N)c2)cc1)c1ncc(S(C)(=O)=O)o1 (centres unmarked) [Compound A90]
4 to 18 µL/min/1e6 cells | CC(Oc1ccc(C(C)(C)c2cc(Cl)c(OCCCl)c(C#N)c2)cc1)c1coc(NS(C)(=O)=O)n1 (centres unmarked) [Compound A91]
≥ 18 µL/min/1e6 cells | CC(Oc1ccc(C(C)(C)c2cc(Cl)c(OCCCl)c(C#N)c2)cc1)c1cnc(NS(C)(=O)=O)o1 (centres unmarked) [Compound A92]
4 to 18 µL/min/1e6 cells | CC(C)(C)C(=O)N(c1ccc(OCc2coc(NS(C)(=O)=O)n2)cc1)c1cc(Cl)c(OCCCl)c(C#N)c1 [Compound A127]
≥ 18 µL/min/1e6 cells | CC(C)(c1ccc(OCc2csc(S(C)(=O)=O)n2)cc1)c1cc(Cl)c(OCCCl)c(C#N)c1 [Compound A144]
≥ 18 µL/min/1e6 cells | CC(C)(c1ccc(C(=O)Nc2ccnc(N)n2)cc1)c1cc(Cl)c(OCCCl)c(Cl)c1 [Compound A146]

Tested on: not listed separately
Assay: Microsomal stability assay, mouse liver microsomes
Format: in vitro ADME
Details: mouse, liver microsomes, pH 7.4, mouse liver microsomes, 1 μM compound, 0.5 mg/mL protein, 37° C.; read-out: MLM +30/− NADPH: Clint (μL/min/mg protein)
Method: (§2) Microsomal stability assay is a widely used in vitro model to characterize the metabolic conversion by phase I enzymes, such as cytochrome P450 (CYP) enzymes. Since metabolism is known to be highly variable in different species, microsomal stability assay is commonly run in multiple species. Metabolic stability of testing compound can be evaluated using human, rat, mouse, or other animal liver or intestine microsomes to predict intrinsic clearance.
(§3) The assay was carried out in 96-well microtiter plates at 37° C. Reaction mixtures (25 μL) contained a final concentration of 1 μM test compound, 0.5 mg/mL liver microsomes protein, and 1 mM NADPH and/or 1 mM UDPGA (with alamethicin) in 100 mM potassium phosphate, pH 7.4 buffer with 3 mM MgCl2. The incubation was done with N=1, but duplicate incubation at each time point can be prepared if necessary. At each of the time points (for example, 0, 15, 30, and 60 minutes), 150 μL of quench solution (100% acetonitrile with 0.1% formic acid) with internal standard was transferred to each well. Besides the zero minute controls, mixtures containing the same components except the NADPH can also be prepared as the negative control. Verapamil was included as a positive control to verify assay performance. Plates were sealed, vortexed, and centrifuged at 4° C. for 15 minutes at 4000 rpm. The supernatant is transferred to fresh plates for LC/MS/MS analysis.
(§4) Summarized conditions: [Compound]=[…], [LM]=0.5 mg/mL, [NADPH]=1 mM and/or [UDPGA]=1 mM, Buffer=100 mM Potassium Phosphate, pH 7.4 with 3 mM MgCl2, Time=0, 15, 30, and 60 min, and Temperature=37° C.
as §1
(§5) The extent of metabolism is calculated as the disappearance of the test compound, compared to the 0-min time incubation. Initial rates are calculated for the compound concentration and used to determine half-life (t½) values and subsequently, the intrinsic clearance (Clint). Clint=(0.693)(1/t½ (min))(g of liver/kg of body weight)(mL incubation/mg of microsomal protein)(45 mg of microsomal protein/g of liver weight)

microsomal CLint at 1 μM | Compound
≥ 48 µL/min/mg | Cc1cc(C(C)(C)c2ccc(OC(C)c3ocnc3S(C)(=O)=O)cc2)cc(C#N)c1OCCCl (centres unmarked) [Compound A88]
≥ 48 µL/min/mg | Cc1cc(C(C)(C)c2ccc(OC(C)c3ncc(S(C)(=O)=O)o3)cc2)cc(C#N)c1OCCCl (centres unmarked) [Compound A89]
≥ 48 µL/min/mg | CC(Oc1ccc(C(C)(C)c2cc(Cl)c(OCCCl)c(C#N)c2)cc1)c1ncc(S(C)(=O)=O)o1 (centres unmarked) [Compound A90]
< 12 µL/min/mg | CC(Oc1ccc(C(C)(C)c2cc(Cl)c(OCCCl)c(C#N)c2)cc1)c1coc(NS(C)(=O)=O)n1 (centres unmarked) [Compound A91]
12 to 48 µL/min/mg | CC(Oc1ccc(C(C)(C)c2cc(Cl)c(OCCCl)c(C#N)c2)cc1)c1cnc(NS(C)(=O)=O)o1 (centres unmarked) [Compound A92]
12 to 48 µL/min/mg | CC(C)(C)C(=O)N(c1ccc(OCc2coc(NS(C)(=O)=O)n2)cc1)c1cc(Cl)c(OCCCl)c(C#N)c1 [Compound A127]
12 to 48 µL/min/mg | CC(C)(c1ccc(OCc2csc(S(C)(=O)=O)n2)cc1)c1cc(Cl)c(OCCCl)c(C#N)c1 [Compound A144]
< 12 µL/min/mg | CC(C)(c1ccc(C(=O)Nc2ccnc(N)n2)cc1)c1cc(Cl)c(OCCCl)c(Cl)c1 [Compound A146]
12 to 48 µL/min/mg | CC(C)(c1cc(Cl)c(OCCCl)c(Cl)c1)c1ccc(N2C(=O)N(S(C)(=O)=O)C(C)(C)C2=O)c(C#N)c1 [Compound B10]

Biological target: T1, androgen receptor (AR) (Homo sapiens, UniProt P10275, T878A)
T1 construct: LNCaP cells were transiently transfected with the PSA (6.1 kb)-luciferase reporter for 24 h; endogenous in cells; host or cells: LNCaP
T1 sequence (P10275 1-920 T878A): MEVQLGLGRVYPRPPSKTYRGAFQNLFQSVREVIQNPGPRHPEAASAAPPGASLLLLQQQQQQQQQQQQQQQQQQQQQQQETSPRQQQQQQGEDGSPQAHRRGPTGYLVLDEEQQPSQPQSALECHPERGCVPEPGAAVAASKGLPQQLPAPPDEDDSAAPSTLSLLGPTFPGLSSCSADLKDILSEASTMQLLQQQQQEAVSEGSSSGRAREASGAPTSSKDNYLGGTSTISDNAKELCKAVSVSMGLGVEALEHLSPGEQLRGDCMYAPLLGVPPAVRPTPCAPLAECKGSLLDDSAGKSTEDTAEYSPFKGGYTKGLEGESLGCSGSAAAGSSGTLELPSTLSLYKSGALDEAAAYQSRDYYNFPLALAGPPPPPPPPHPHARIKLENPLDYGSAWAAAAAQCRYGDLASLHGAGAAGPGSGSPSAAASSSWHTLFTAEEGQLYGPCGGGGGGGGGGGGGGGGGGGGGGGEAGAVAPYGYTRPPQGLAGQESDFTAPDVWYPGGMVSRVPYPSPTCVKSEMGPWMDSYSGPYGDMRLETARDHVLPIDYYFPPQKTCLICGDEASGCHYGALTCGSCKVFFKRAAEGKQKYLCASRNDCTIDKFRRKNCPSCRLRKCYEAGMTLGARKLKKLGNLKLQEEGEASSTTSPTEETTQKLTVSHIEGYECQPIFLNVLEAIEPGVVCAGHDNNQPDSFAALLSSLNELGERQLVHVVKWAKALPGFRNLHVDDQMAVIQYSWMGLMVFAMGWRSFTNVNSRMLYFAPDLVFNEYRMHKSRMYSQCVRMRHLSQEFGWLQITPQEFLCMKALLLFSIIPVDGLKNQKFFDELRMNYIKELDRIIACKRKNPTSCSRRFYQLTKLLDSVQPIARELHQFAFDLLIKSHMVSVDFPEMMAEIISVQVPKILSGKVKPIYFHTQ
Assay: Androgen-induced PSA (6.1 kb)-luciferase reporter assay in LNCaP cells
Format: cell-based
Details: LNCaP cells transfected with PSA (6.1 kb)-luciferase reporter, R1881 1 nM, 24 h; read-out: PSA-Luc IC50 Range
Method: The PSA (6.1 kb)-luciferase reporter contains functional AREs (androgen response elements) to which AR binds in response to androgen to induce luciferase activity.
Cells were lysed using Passive Lysis Buffer (Promega) and then collected into V-bottom 96-well tissue culture plates. Lysates were centrifuged at 4° C. for 5 minutes at 3000 rpm. To measure luminescence of LNCaP cell lysates the Firefly Luciferase Assay System (Promega) was employed, according to manufacturer's protocol. Relative luminescence units (RLU) in cell lysates were detected for 10 seconds using Promega GloMax-Multi Detection Luminometer (Promega). Values were normalized to protein content. GraphPad Prism graphing software was used to calculate IC50 values.
Comparisons between treatment and control groups were compared using Two-Way ANOVA with post-hoc Dunnett's and Tukey's tests. Differences were considered statistically significant at P values less than 0.05.

IC50 | Compound
0.5 to 2 µM | Cc1cc(C(C)(C)c2ccc(OC(C)c3ocnc3S(C)(=O)=O)cc2)cc(C#N)c1OCCCl (centres unmarked) [Compound A88]
0.5 to 2 µM | Cc1cc(C(C)(C)c2ccc(OC(C)c3ncc(S(C)(=O)=O)o3)cc2)cc(C#N)c1OCCCl (centres unmarked) [Compound A89]
0.5 to 2 µM | CC(Oc1ccc(C(C)(C)c2cc(Cl)c(OCCCl)c(C#N)c2)cc1)c1ncc(S(C)(=O)=O)o1 (centres unmarked) [Compound A90]
0.5 to 2 µM | CC(Oc1ccc(C(C)(C)c2cc(Cl)c(OCCCl)c(C#N)c2)cc1)c1coc(NS(C)(=O)=O)n1 (centres unmarked) [Compound A91]
< 0.5 µM | CC(Oc1ccc(C(C)(C)c2cc(Cl)c(OCCCl)c(C#N)c2)cc1)c1cnc(NS(C)(=O)=O)o1 (centres unmarked) [Compound A92]
> 2 µM | CC(C)(c1cc(Cl)c(OCCCl)c(Cl)c1)c1ccc(N2C(=O)N(S(C)(=O)=O)C(C)(C)C2=O)c(C#N)c1 [Compound B10]

Tested on: not listed separately
Assay: Microsomal stability assay, human liver microsomes
Format: in vitro ADME
Details: pH 7.4, 1 μM compound, 0.5 mg/mL protein, 37° C., read-out: HLM +/− NADPH: Clint (μL/min/mg protein)
Method: as §2, §3, §4, §1, §5

microsomal CLint at 1 μM | Compound
≥ 48 µL/min/mg | Cc1cc(C(C)(C)c2ccc(OC(C)c3ocnc3S(C)(=O)=O)cc2)cc(C#N)c1OCCCl (centres unmarked) [Compound A88]
12 to 48 µL/min/mg | Cc1cc(C(C)(C)c2ccc(OC(C)c3ncc(S(C)(=O)=O)o3)cc2)cc(C#N)c1OCCCl (centres unmarked) [Compound A89]
< 12 µL/min/mg | CC(Oc1ccc(C(C)(C)c2cc(Cl)c(OCCCl)c(C#N)c2)cc1)c1ncc(S(C)(=O)=O)o1 (centres unmarked) [Compound A90]
< 12 µL/min/mg | CC(Oc1ccc(C(C)(C)c2cc(Cl)c(OCCCl)c(C#N)c2)cc1)c1coc(NS(C)(=O)=O)n1 (centres unmarked) [Compound A91]
12 to 48 µL/min/mg | CC(Oc1ccc(C(C)(C)c2cc(Cl)c(OCCCl)c(C#N)c2)cc1)c1cnc(NS(C)(=O)=O)o1 (centres unmarked) [Compound A92]
12 to 48 µL/min/mg | CC(C)(C)C(=O)N(c1ccc(OCc2coc(NS(C)(=O)=O)n2)cc1)c1cc(Cl)c(OCCCl)c(C#N)c1 [Compound A127]
12 to 48 µL/min/mg | CC(C)(c1ccc(OCc2csc(S(C)(=O)=O)n2)cc1)c1cc(Cl)c(OCCCl)c(C#N)c1 [Compound A144]
12 to 48 µL/min/mg | CC(C)(c1ccc(C(=O)Nc2ccnc(N)n2)cc1)c1cc(Cl)c(OCCCl)c(Cl)c1 [Compound A146]
< 12 µL/min/mg | CC(C)(c1cc(Cl)c(OCCCl)c(Cl)c1)c1ccc(N2C(=O)N(S(C)(=O)=O)C(C)(C)C2=O)c(C#N)c1 [Compound B10]
